Reference: PubChem BioAssay (NCI)
“And” between values parts separate entries of the source, which are not always exact repeats. Equal values may be shown once.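 Assay format: 96-well plates, 48-hour exposure. Abbreviation: GI50, concentration required for 50% inhibition of growth. TGI is the concentration that stops growth completely.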

Experiments:
Assay in all cases: growth of human tumour cells (NCI), 48 h
[1] = system: MDA-MB-435
[2] = system: SF-539 CNS
[3] = system: NCI-H23 lung
[4] = system: A549 NSCLC
[5] = system: NCI-H226 lung
[6] = system: SK-OV-3 ovarian
[7] = system: PC-3 prostate
[8] = system: SN12C renal

SMILES | GI50 [1] | TGI [1] | GI50 [2] | TGI [2] | GI50 [3] | TGI [3] | GI50 [4] | TGI [4] | GI50 [5] | TGI [5] | GI50 [6] | TGI [6] | GI50 [7] | TGI [7] | GI50 [8] | TGI [8]
CC12CCC3C(CCC4Cc5[nH]c6ccccc6c5CC43C)C1CCC2O (stereo not given) | 0.241 µM | 0.717 µM | 1.2 µM | 3.77 µM | 1.81 µM | > 24.8 µM | 2.63 µM | > 100 µM | 6.08 µM | > 100 µM | 2.81 µM | > 100 µM | 3.13 µM | > 100 µM | 4.09 µM | > 100 µM
Clc1ncnc(Cl)c1Cl | – | > 100 µM | – | > 100 µM | – | > 100 µM | – | > 100 µM | – | > 100 µM | – | > 100 µM | – | > 100 µM | – | > 100 µM
CCSCC1CC(O)(c2ccccc2)C(c2ccccc2)C(c2ccc(Cl)cc2)O1 (stereo not given) | 1.74 µM | 3.84 µM | 1.76 µM | 3.56 µM | 1.88 µM | 3.94 µM | 1.61 µM | 3.63 µM | 1.74 µM | 3.97 µM | 2.5 µM | 7.33 µM | 1.48 µM | 4.86 µM | 1.52 µM | 3.13 µM
Cc1c(N2CCCC2)cc2c(c1NC(=O)c1ccccc1Cl)C(C)(C)CC2(C)C | – | 27.9 µM | – | 39.7 µM | – | 28.5 µM | – | 27.6 µM | – | 41.5 µM | – | 27.2 µM | – | 29.9 µM | – | 33.2 µM
O=C(O)C/C(=C\c1ccco1)C(=O)O | – | > 100 µM | – | > 100 µM | – | > 100 µM | – | > 100 µM | – | > 100 µM | – | > 100 µM | – | > 100 µM | – | > 100 µM
CCN1CCN(Cc2ccc(-c3cc4c(N[C@H](C)c5ccccc5)ncnc4[nH]3)cc2)CC1 | 1.95 µM and 2.74 µM | 4.63 µM and 8.4 µM | 2.07 µM and 1.9 µM | 5.67 µM and 5.14 µM | 7.39 µM and > 10 µM | 33.3 µM and > 10 µM | 1.71 µM and 3.08 µM | 13.1 µM and > 10 µM | 3.03 µM and 7.73 µM | 24.7 µM and > 10 µM | 0.299 µM | 11.1 µM | 2.24 µM and 5.07 µM | 18.7 µM and > 10 µM | 0.278 µM and 2.12 µM | 15.5 µM and > 10 µM
F | 2080 µM | 5500 µM | 1770 µM | 4620 µM | 5260 µM | > 6870 µM | 2730 µM | > 6870 µM | > 6870 µM | > 6870 µM | 3680 µM | > 6870 µM | 3920 µM | > 6870 µM | 3270 µM | > 6870 µM
C[C@@H]1COCCN1c1cc(C2([S@](C)(=N)=O)CC2)nc(-c2ccnc3[nH]ccc23)n1 | 3.74 µM and 4.29 µM | 35.7 µM and > 10 µM | 1.19 µM and 1.99 µM | 8.03 µM and > 10 µM | 1.74 µM and 1.7 µM | 34.3 µM and > 10 µM | 3.46 µM and 4.02 µM | > 100 µM | 4.98 µM and 8.53 µM | 51.3 µM and > 10 µM | 2.7 µM and 4.51 µM | 27.9 µM and > 10 µM | 12.2 µM and > 10 µM | > 100 µM | 5.04 µM and 9.13 µM | > 100 µM
COc1cc2c(cc1O)CC[C@@H]1[C@@H]2CC[C@]2(C)[C@@H](NCCN(C)C)CC[C@@H]12 | 0.0662 µM | 0.133 µM | 0.083 µM | 0.264 µM | 0.161 µM | 0.636 µM | 0.3 µM | 0.827 µM | 0.698 µM | 1.59 µM | 0.194 µM | 0.667 µM | 0.188 µM | 0.599 µM | 0.38 µM | 1.48 µM
CC(=O)N[C@@H](Cc1ccc(OP(=O)(O)O)cc1)C(=O)N[C@H]1CCC(=O)N2CCC[C@@H](C(=O)NCc3ccc(Cl)cc3)N2C1=O | > 25 µM | > 25 µM | > 25 µM | > 25 µM | > 25 µM | > 25 µM | > 25 µM | > 25 µM | > 25 µM | > 25 µM | > 25 µM | > 25 µM | > 25 µM | > 25 µM | > 25 µM | > 25 µM
Nc1ccc2c(c1)C(=O)C(=O)c1c-2nc2ccccn12 | 0.186 µM | 0.352 µM | 1.66 µM | 3.03 µM | 0.576 µM | 3.05 µM | 1.62 µM | 3.54 µM | 1.72 µM | 3.75 µM | 2.64 µM | 7.62 µM | 1.78 µM | 10.5 µM | 1.08 µM | 2.48 µM
COc1ccc(OC)c(/C=N/NC(=O)Cc2csc3nc(-c4ccc(Br)cc4)cn23)c1 | 3.96 µM | 16.2 µM | 11.2 µM | 24.4 µM | 19.3 µM | 52.3 µM | 11.6 µM | 38.7 µM | – | – | 57.7 µM | > 100 µM | 13.5 µM | 93.8 µM | 20.7 µM | 49.4 µM
CCCCCCCCCCCCNC(C)=O | – | 35.4 µM | – | 29.9 µM | – | 29.9 µM | – | > 100 µM | – | 35.9 µM | – | 29.1 µM | – | 28.4 µM | – | 37 µM
Cc1cccc(NC(=O)CCc2ccc(N3C(N)=NC(N)=NC3(C)C)cc2)c1 | 0.56 µM | > 100 µM | 1.93 µM | > 100 µM | 6.32 µM | > 100 µM | 0.188 µM | > 29 µM | > 64.7 µM | > 100 µM | > 62.9 µM | > 100 µM | 0.089 µM | > 66.4 µM | 0.575 µM | > 100 µM
C=CC[n+]1c(/C=C/C=C2\N(C)c3ccccc3C2(C)C)sc2ccc(OC)cc21 | 0.256 µM | 10.6 µM | 0.329 µM | 13.9 µM | 0.0761 µM | 12.9 µM | 0.279 µM | 16.1 µM | 0.282 µM | 13 µM | 0.21 µM | 0.769 µM | 0.215 µM | 12.2 µM | 0.283 µM | 11.8 µM
NC(=O)NNCc1ccccc1 | – | > 100 µM | – | > 100 µM | – | > 100 µM | – | > 100 µM | – | > 100 µM | – | > 100 µM | – | > 100 µM | – | > 100 µM
FC(F)(F)c1nc(N2CCCC2)ncc1-c1nnnn1-c1ccc(Cl)cc1 | 15.2 µM | 40.8 µM | 39.8 µM | > 100 µM | 20 µM | 51.8 µM | 13.4 µM | > 100 µM | 13.9 µM | > 100 µM | 31.8 µM | > 100 µM | 16 µM | 82.2 µM | 26.3 µM | > 100 µM
